According to publication PMC8609999, “A Phase I trial of talazoparib in patients with advanced hematologic malignancies” (International Journal of Hematologic Oncology, 2021):
Values joined by “and” are separate entries in the source; they are usually repeats but may differ in a detail not shown here. Equal entries are not always repeated. Where two headings read alike, the source gives them in different places. Marks after values point to notes of the source that are not given here.

How the values were obtained:
[1] = test system: patients with advanced hematologic malignancies (cohort 1: AML/MDS; cohort 2: CLL/MCL); experiment: Dose-limiting toxicity / MTD, Phase I 3 + 3 dose-escalation of once-daily oral talazoparib (NCT01399840); format: in vivo; details: for Maximum tolerated dose (MTD): oral once daily, 21-day cycles
Procedure: This study was an open-label, two-cohort, Phase I, dose-escalation study of once-daily talazoparib monotherapy in patients with advanced hematologic malignancies (ClinicalTrials.gov Identifier: NCT01399840) conducted at seven sites in the US and the UK between July 2011 and November 2013. Enrollment and dose escalation were conducted independently in each cohort of the study. Talazoparib was administered orally, once a day for repeated 21-day cycles under fasting conditions. Each cohort consisted of two stages: dose escalation (stage 1) and dose expansion (stage 2). Dose escalation followed a standard 3 + 3 dose-escalation design, where the first patient in each group was observed from cycle 1 day 1 through cycle 1 day 8 before two to five additional patients were treated in that dose level. […] Planned talazoparib dose levels included 0.1, 0.2, 0.3, 0.45, 0.9, 1.35, and 2.0 mg/day.
The primary objective of the study was to establish the MTD of daily oral talazoparib in molecularly unselected patients with AML or MDS (cohort 1) and in patients with CLL or MCL (cohort 2). The MTD was defined as the highest dose level at which no more than one of six patients experienced a DLT. A DLT was defined as any of the following treatment-related toxicities occurring during cycle 1: in cohort 1, hematologic adverse events (AEs) included bone marrow hypoplasia (≤10% cellularity) lasting ≥28 days. Non-hematologic toxicities included any Grade ≥3 AE except for the following: (1) a non-hematologic Grade 3 laboratory AE that is asymptomatic and rapidly reversible (returned to baseline or to Grade ≤1 within 3 days) unless identified as clinically relevant by the investigator; (2) Grade 3 nausea, vomiting, and/or diarrhea responsive to medications within 24 h; (3) Grade 3 tumor lysis syndrome; (4) Grade 3 stomatitis that resolves within 7 days; or (5) Grade 3 fatigue unless ≥2 grade increase from baseline lasting >3 days. Missing ≥4 doses of talazoparib during cycle 1 for treatment-related non-hematologic toxicity was also defined as a DLT. In cohort 2, hematologic AEs included Grade 4 thrombocytopenia persisting for >7 days and/or resulting in Grade ≥2 hemorrhage, or Grade 4 neutropenia lasting >7 days and/or associated with fever (hematologic AEs for patients with bone marrow effacement [i.e., platelet count ≤50 × 10^9/L and neutrophil count <1 × 10^9/L] included >50% decrease in platelet count persisting for >7 days or resulting in Grade ≥2 hemorrhage, or >50% decrease in neutrophil count and/or associated with fever or systemic infection). For non-hematologic AEs, the same criteria used for cohort 1 were used to define DLT.
Patients experiencing a DLT during cycle 1 could resume talazoparib treatment at the same or reduced dose after recovery to baseline or Grade ≤1 within 21 days of treatment interruption. Patients not experiencing a DLT during cycle 1 could receive additional treatment until disease progression, treatment failure, or relapse. Patients with persisting non-hematologic Grade 1/2 toxicity were dose reduced ∼25%. Dosing was stopped for patients with a Grade 3/4 non-hematologic toxicity and resumed with a 25%–50% dose reduction if toxicity resolved to Grade 0/1 after >7 days, or returned to baseline. Patients with non-hematologic Grade 3 toxicity that resolved to Grade 0/1 in <7 days could resume with ∼25% reduction.
For determination of the MTD, only the treated evaluable patients were included. No formal sample size calculations based on statistical power were performed. Descriptive statistics were used to characterize all outcomes.

[2] = test system: patients with advanced hematologic malignancies (cohort 1: AML/MDS; cohort 2: CLL/MCL); format: in vivo, human
Excerpt: AEs were coded in accordance with The Medical Dictionary for Regulatory Activities, version 16.1. Treatment-emergent AEs (TEAEs) were defined as AEs that were new, increased in frequency, or worsened in severity, after the first talazoparib dose. AEs counted as drug-related had been classified by investigators as possibly or probably related to talazoparib.
All analyses in this open-label, dose-finding study were descriptive in nature. Descriptive summaries of continuous variables, including the mean, standard deviation (SD), median, range, and, where appropriate, 95% CI and/or interquartile range, were determined using the Statistical Analysis Software (SAS), version 9.2. Descriptive summaries of categorical variables included the number of patients and percentages. Data were summarized with respect to the dose level at which the patients started treatment. Cohorts were defined as all patients who began treatment at a given dose level.

Cn1ncnc1[C@H]1c2n[nH]c(=O)c3cc(F)cc(c23)N[C@@H]1c1ccc(F)cc1 [talazoparib]
Maximum tolerated dose (MTD) ([1]; Cohort 1 (AML/MDS)): < 2.0 mg/day and 1.35 mg/day | DLT AE: Neutropenic sepsis ([1]; Cohort 1, 0.10 mg/day (n = 3)): 0 (0.0) n (%) | DLT AE: Neutropenic sepsis ([1]; Cohort 1, 0.20 mg/day (n = 3)): 0 (0.0) n (%) | DLT AE: Neutropenic sepsis ([1]; Cohort 1, 0.30 mg/day (n = 5)): 0 (0.0) n (%) | DLT AE: Neutropenic sepsis ([1]; Cohort 1, 0.45 mg/day (n = 3)): 0 (0.0) n (%) | DLT AE: Neutropenic sepsis ([1]; Cohort 1, 0.90 mg/day (n = 4)): 0 (0.0) n (%) | DLT AE: Neutropenic sepsis ([1]; Cohort 1, 1.35 mg/day (n = 3)): 0 (0.0) n (%) | DLT AE: Neutropenic sepsis ([1]; Cohort 1, 2.00 mg/day (n = 4)): 1 (25.0)^† n (%) | DLT AE: Neutropenic sepsis ([1]; Cohort 1, All (n = 25)): 1 (4.0) n (%) | Maximum tolerated dose (MTD) ([1]; Cohort 2 (CLL/MCL)): < 0.9 mg/day and ~0.9 mg/day | DLT AE: Neutropenic sepsis ([1]; Cohort 2, 0.10 mg/day (n = 3)): 0 (0.0) n (%) | DLT AE: Neutropenic sepsis ([1]; Cohort 2, 0.90 mg/day (n = 5)): 0 (0.0) n (%) | DLT AE: Neutropenic sepsis ([1]; Cohort 2, All (n = 8)): 0 (0.0) n (%) | MTD in patients with hematologic malignancies (approximate range) ([1]; monotherapy, once daily, both cohorts): ~1 mg | Any AEs of CTCAE Grade of 5 (death) ([2]; Cohort 1, 0.10 mg/day (n = 3)): 0 (0.0) n (%) | Any study drug-related AEs of CTCAE Grade 5 (death) ([2]; Cohort 1, 0.10 mg/day (n = 3)): 0 (0.0) n (%) | Any AEs of CTCAE Grade of 5 (death) ([2]; Cohort 1, 0.20 mg/day (n = 3)): 2 (66.7) n (%) | Any study drug-related AEs of CTCAE Grade 5 (death) ([2]; Cohort 1, 0.20 mg/day (n = 3)): 0 (0.0) n (%) | Any AEs of CTCAE Grade of 5 (death) ([2]; Cohort 1, 0.30 mg/day (n = 5)): 1 (20.0) n (%) | Any study drug-related AEs of CTCAE Grade 5 (death) ([2]; Cohort 1, 0.30 mg/day (n = 5)): 0 (0.0) n (%) | Any AEs of CTCAE Grade of 5 (death) ([2]; Cohort 1, 0.45 mg/day (n = 3)): 2 (66.7) n (%) | Any study drug-related AEs of CTCAE Grade 5 (death) ([2]; Cohort 1, 0.45 mg/day (n = 3)): 0 (0.0) n (%) | Any AEs of CTCAE Grade of 5 (death) ([2]; Cohort 1, 0.90 mg/day (n = 4)): 3 (75.0) n (%) | Any study drug-related AEs of CTCAE Grade 5 (death) ([2]; Cohort 1, 0.90 mg/day (n = 4)): 0 (0.0) n (%) | Any AEs ([2]; Cohort 1, 1.35 mg/day (n = 3)): 3 (100) n (%) | Any AEs leading to dose interruption or modification ([2]; Cohort 1, 1.35 mg/day (n = 3)): 0 (0.0) n (%) | Any AEs leading to study drug withdrawn ([2]; Cohort 1, 1.35 mg/day (n = 3)): 0 (0.0) n (%) | Any AEs of CTCAE Grade 3 or 4 ([2]; Cohort 1, 1.35 mg/day (n = 3)): 3 (100) n (%) | Any AEs of CTCAE Grade of 5 (death) ([2]; Cohort 1, 1.35 mg/day (n = 3)): 1 (33.3) n (%) | Any SAEs ([2]; Cohort 1, 1.35 mg/day (n = 3)): 2 (66.7) n (%) | Any SAEs of CTCAE Grade of 3 or 4 ([2]; Cohort 1, 1.35 mg/day (n = 3)): 2 (66.7) n (%) | Any study drug-related AEs ([2]; Cohort 1, 1.35 mg/day (n = 3)): 3 (100) n (%) | Any study drug-related AEs leading to dose interruption or modification ([2]; Cohort 1, 1.35 mg/day (n = 3)): 0 (0.0) n (%) | Any study drug-related AEs leading to study drug withdrawal ([2]; Cohort 1, 1.35 mg/day (n = 3)): 0 (0.0) n (%) | Any study drug-related AEs of CTCAE Grade 5 (death) ([2]; Cohort 1, 1.35 mg/day (n = 3)): 0 (0.0) n (%) | Any study drug-related AEs of CTCAE Grade of 3 or 4 ([2]; Cohort 1, 1.35 mg/day (n = 3)): 2 (66.7) n (%) | Any study drug-related SAEs ([2]; Cohort 1, 1.35 mg/day (n = 3)): 0 (0.0) n (%) | Any AEs of CTCAE Grade of 5 (death) ([2]; Cohort 1, 2.00 mg/day (n = 4)): 3 (75.0) n (%) | Any study drug-related AEs of CTCAE Grade 5 (death) ([2]; Cohort 1, 2.00 mg/day (n = 4)): 1 (25.0)^§ n (%) | Any AEs of CTCAE Grade of 5 (death) ([2]; Cohort 1, All (n = 25)): 12 (48.0) n (%) | Any study drug-related AEs of CTCAE Grade 5 (death) ([2]; Cohort 1, All (n = 25)): 1 (4.0)^§ n (%) | Any AEs of CTCAE Grade of 5 (death) ([2]; Cohort 2, 0.10 mg/day (n = 3)): 1 (33.3) n (%)
